According to ChEMBL document CHEMBL4825735, “Estimation of the lipophilicity of purine-2,6-dione-based TRPA1 antagonists and PDE4/7 inhibitors with analgesic activity” (Bioorg Med Chem Lett, 2021):

assay: Lipophilicity, logP of compound by shake flask method; assay type: physicochemical; details: octanol/water

Compound	logP
COc1ccc(Cc2nccc3cc(OC)c(OC)cc23)cc1OC [PAPAVERINE]	3

assay: Relative lipophilicity of the compound in methanol assessed as retardation factor by reversed-phase TLC analysis; assay type: physicochemical; details: not given

Compound	Rm
COc1nc2c(c(=O)n(C)c(=O)n2C)n1CC(=O)Nc1ccc(C(C)(C)C)cc1	3.92
COc1nc2c(c(=O)n(C)c(=O)n2C)n1CCCC(=O)Nc1ccc(C(C)(C)C)cc1	3.82
CCCOc1nc2c(c(=O)n(C)c(=O)n2C)n1CCCC(=O)Nc1ccc(C(C)CC)cc1 (configuration not stated)	4.86
CCCOc1nc2c(c(=O)n(C)c(=O)n2C)n1CCCC(=O)Nc1ccc(C(C)(C)C)cc1	4.81
COc1nc2c(c(=O)n(C)c(=O)n2C)n1CC(=O)Nc1ccc(C(C)C)cc1	3.28
CCOc1nc2c(c(=O)n(C)c(=O)n2C)n1CCCC(=O)Nc1ccc(C(C)C)cc1	4.4
CCOc1nc2c(c(=O)n(C)c(=O)n2C)n1CC(=O)Nc1ccc(C(C)(C)C)cc1	3.99
CCOc1nc2c(c(=O)n(C)c(=O)n2C)n1CCCC(=O)Nc1ccc(C(C)(C)C)cc1	3.84
CCCOc1nc2c(c(=O)n(C)c(=O)n2C)n1CCCC(=O)Nc1ccc(C(C)C)cc1	4.4
CCCCOc1nc2c(c(=O)n(C)c(=O)n2C)n1CCCC(=O)Nc1ccc(C(C)CC)cc1 (configuration not stated)	4.7
CCOc1nc2c(c(=O)n(C)c(=O)n2C)n1CC(=O)Nc1ccc(C(C)C)cc1	3.86
COc1nc2c(c(=O)n(C)c(=O)n2C)n1CCCC(=O)Nc1ccc(C(C)C)cc1	3.8
CCCCOc1nc2c(c(=O)n(C)c(=O)n2C)n1CCCC(=O)Nc1cc(C(C)CC)ccc1O (configuration not stated)	4.87
CCCOc1nc2c(c(=O)n(C)c(=O)n2C)n1CCCC(=O)Nc1cc(C(C)CC)ccc1O (configuration not stated)	4.52
CC(=O)Nc1ccc(O)cc1 [ACETAMINOPHEN]	0.31
CCC1(CC)C(=O)NC(=O)NC1=O [BARBITAL]	0.8
CCOC(=O)c1ccc(N)cc1 [BENZOCAINE]	1.92
O=C(CCCN1CCC(O)(c2ccc(Cl)cc2)CC1)c1ccc(F)cc1 [HALOPERIDOL]	3.61
CCN(CC)CC(=O)Nc1c(C)cccc1C [LIDOCAINE]	1.31
COc1ccc(Cc2nccc3cc(OC)c(OC)cc23)cc1OC [PAPAVERINE]	2.79
CCC1(c2ccccc2)C(=O)NC(=O)NC1=O [PHENOBARBITAL]	1.9
O=C1NC(=O)C(c2ccccc2)(c2ccccc2)N1 [PHENYTOIN]	2.43
C[C@]12C=CC(=O)C=C1CC[C@@H]1[C@@H]2[C@@H](O)C[C@@]2(C)[C@H]1CC[C@]2(O)C(=O)CO [PREDNISOLONE]	2.49
Cn1cnc2c1c(=O)[nH]c(=O)n2C [THEOBROMINE]	0.26
Cn1c(=O)c2[nH]cnc2n(C)c1=O.O [THEOPHYLLINE]	0.61
O=c1n(CCCN2CCN(c3cccc(Cl)c3)CC2)nc2ccccn12 [TRAZODONE]	2.65
